Measurements as given in patent publication EP1311486B1, “USES OF THALIPORPHINE OR ITS DERIVATIVES IN TREATMENT OF CARDIAC DISEASES AND PREPARATION OF SAME” (Lotus Pharmaceutical Co., Ltd., priority 2000, dated 2002).
Where “and” joins values, the source holds several entries; their conditions need not be identical. Equal entries are not always repeated. Marks after values point to notes of the source that are not given here.

Experiments:
[1] = tested on: transient outward potassium current (Ito); assay: Inhibition of transient outward potassium current; conditions: rats
Experimental: Moreover, 3-10µM THP prolongs the action potential duration in the atria or ventricles of both rats and guinea pigs (data not shown).

[2] = tested on: Human low density lipoprotein (LDL); assay: Copper-induced lipid peroxidation of LDL (TBARS formation); assay type: biochemical; conditions: LDL 100µg/ml, 37°C, CuSO4 12 hours
Experimental: Human low density lipoprotein (LDL, 100µg/ml) was preincubated with DMSO (0.1%, basal and control) or various concentrations of THP at 37°C for 10 minutes, and then CuSO4 was added, except for basal, and incubated for another 12 hours to determine the impact of THP on lipid peroxidation.
The impact of THP on lipid peroxidation is further assessed by evaluating its effect on the formation of TBARS (thiobarbituric acid-reactive substance) from LDL. Exposure of LDL to CuSO4 within 12 hours results in the peroxidation of LDL, as indicated by the increased content of TBARS (FIG. 3).

isolated rat hearts = assay: Arrhythmia induced by ligation-reperfusion in isolated rat heart
Experimental: The isolated rat hearts were ligated by a temporary tightening of the silk ligature around the left main coronary artery to induce myocardial ischemia. Reperfusion was achieved by releasing the tension applying to the ligature to induce arrhythmia. 10µM THP was then administered and the atrial and ventricular electrograms were recorded.
Similarly, 10µM THP can be effective in inhibiting the cardiac arrhythmia induced in the isolated guinea pig heart subjected to global ischemia followed by reperfusion (Table 1). The structure of coronary arteries between rat and guinea pig are not alike, THP, however, can be effective in inhibiting the arrhythmia induced in the isolated heart subjected to ischemia-reperfusion in both animals.

in vivo anesthetized rat [3] = assay: Ischemia-induced arrhythmias in the anesthetized rat (30 minutes coronary occlusion)
Experimental: (§1) Myocardial ischemia was performed by a temporary tightening of the silk ligature around the left main coronary artery. Reperfusion was achieved by releasing the tension applied to the ligature (operated groups). Sham operated animals underwent all surgical procedures, apart from the fact that the silk, passing around the left coronary artery, was not tied (sham groups). Animals were infused with a bolus of THP (3.5x10^-7, 3.5x10^-6, 3.5x10^-5 g/kg), L-NAME (N^∞-nitro-L-arginine methyl ester; 1x10^-3 g/kg) or vehicle (dimethyl sulfoxide/ NaCl 0.9%, 1:10^3; v/v) from a jugular vein 15 minutes before coronary occlusion. The coronary artery was occluded for 30 minutes or 5 minutes followed by 30 minutes reperfusion and with the animals then divided randomly in the following groups: (1) sham + vehicle; (2) sham + THP (3.5x10^-5g/kg); (3) operated + vehicle; (4) operated + THP (3.5x10^-7 g/kg); (5) operated + THP (3.5x10^-6 g/kg); (6) operated + THP (3.5x10^-5 g/kg); (7) operated + L-NAME (1x10^-3 g/kg) + THP (3.5x10^-5 g/kg). Before and during the ischemia or reperfusion period, heart rate (HR), blood pressure (BP) and ECG changes were recorded. Ventricular ectopic activity was evaluated according to the diagnostic criteria advocated in the Lambeth Convention. The incidence and duration of ventricular tachyarrhythmias, including ventricular tachycardia (VT) and ventricular fibrillation (VF), in surviving animals was determined. The Mann-Whitney rank-sum test was used to analyze the differences in the duration of VT and VF between vehicle and drug treated groups. The BP and HR changes between vehicle and drug treated rats in the arrhythmia study were analyzed by ANOVA (analysis of variance) followed by Bonferroni's test. The difference in the percentage incidence of VT, VF and mortality rate was analyzed with a Chi-square test. Table 2 Effect of THP on ischemia-induced arrhythmias in the in vivo anesthetized rat
In ischemic condition, severe ventricular arrhythmias in the vehicle group begins after 6-7 minutes of coronary artery occlusion, peaks after 8-12 minutes, and normally subsides after approximately 15 minutes from initiation. The duration of VF is calculated to be 32.1±8.9 seconds, and the duration of VT is 36.8±8.8 seconds. […] Administration of THP at 3.5x10^-5 g/kg results in a decrease of the incidence of VT and VF to 10% and 0%, respectively (p<0.05). […] A particular important finding is the very effective reduction of mortality even at very low dose of THP 3.5x 10^-7 g/kg.

in vivo anesthetized rat [4] = assay: Reperfusion-induced arrhythmias in the anesthetized rat (5 minutes ischemia, 30 minutes reperfusion)
Experimental: as §1
The severity of reperfusion induced-arrhythmias is critically dependent upon the duration of the preceding period of ischemia. Thus, the protocol of a 5 minutes period of ischemia followed by a 30 minutes period of reperfusion is selected for producing the highest incidence of rhythm disturbance. […] In contrast, animals pretreated with THP (3.5x10^-6 and 3.5x10^-5 g/kg), experienced a drastic reduction in the incidence of VF from 88% to 29% and 13% (p<0.05) and the duration of VF from 92.4±20.5 seconds to 9.2±8.3 and 1.2±1.2 seconds (p<0.05). The mortality rate also decreases from 75% to 0% by 3.5x10^-6 g/kg THP (p<0.05). However, L-NAME coadministration only partially antagonizes the antiarrhythmic activity and mortality prevention effect of thaliporphine (3.5x10^-5 g/kg).

[5] = tested on: rats subjected to myocardial ischemia; assay: Blood pressure and heart rate in rats subjected to 30 minutes coronary ligation; assay type: in vivo; conditions: intravenous, 3.5x10^-6 or 3.5x10^-5 g/kg
Experimental: as §1
No significant difference can be seen among vehicle and drug groups (3.5x10^-6 or 3.5x10^-5 g/kg, THP).

inward calcium current = conditions: Su MJ, et al., Eur. J. Pharmacol., 1994; cited from earlier work

COc1cc2c(cc1OC)-c1c(O)c(OC)cc3c1C(C2)N(C)CC3 (single isomer, unassigned; (+)) [THP, (+)-Thaliporphine]
transient outward potassium current (Ito) [1]: markedly inhibit
IC50 [2]: 15.7 µM
effect on polymorphic ventricular tachyrhythmia induced by ischemia-reperfusion (isolated rat hearts; 10 µM, FIG. 5 (a)): conversion of polymorphic ventricular tachyrhythmia induced by ischemia-reperfusion to normal sinus rhythm
IC50 (isolated rat hearts; 0.5 h, isolated rat heart, 30 minutes ligation followed by reperfusion, 3-30µM, read-out: IC50, reversing the cardiac arrhythmia): 15.7 µM
Mortality (%) (in vivo anesthetized rat [3]; THP 3.5x10^-5 g/kg i.v.): 0%
VF Duration (in vivo anesthetized rat [3]; THP 3.5x10^-5 g/kg i.v.): 0.0 ± 0.0 s
VF Incidence(%) (in vivo anesthetized rat [3]; THP 3.5x10^-5 g/kg i.v.): 0%
VT Duration (in vivo anesthetized rat [3]; THP 3.5x10^-5 g/kg i.v.): 0.3 ± 0.3 s
VT Incidence(%) (in vivo anesthetized rat [3]; THP 3.5x10^-5 g/kg i.v.): 10%
Mortality (%) (in vivo anesthetized rat [3]; THP 3.5x10^-6 g/kg i.v.): 0%
VF Duration (in vivo anesthetized rat [3]; THP 3.5x10^-6 g/kg i.v.): 0.5 ± 0.5 s
VF Incidence(%) (in vivo anesthetized rat [3]; THP 3.5x10^-6 g/kg i.v.): 10%
VT Duration (in vivo anesthetized rat [3]; THP 3.5x10^-6 g/kg i.v.): 5.7 ± 3.3 s
VT Incidence(%) (in vivo anesthetized rat [3]; THP 3.5x10^-6 g/kg i.v.): 50* %
Mortality (%) (in vivo anesthetized rat [3]; THP 3.5x10^-7 g/kg i.v.): 0%
VF Duration (in vivo anesthetized rat [3]; THP 3.5x10^-7 g/kg i.v.): 6.7 ± 4.9 s
VF Incidence(%) (in vivo anesthetized rat [3]; THP 3.5x10^-7 g/kg i.v.): 20%
VT Duration (in vivo anesthetized rat [3]; THP 3.5x10^-7 g/kg i.v.): 16.1 ± 7.4 s
VT Incidence(%) (in vivo anesthetized rat [3]; THP 3.5x10^-7 g/kg i.v.): 60%
Mortality (%) (in vivo anesthetized rat [4]; THP 3.5x10^-5 g/kg i.v.): 0* %
VF Duration (in vivo anesthetized rat [4]; THP 3.5x10^-5 g/kg i.v.): 1.2 ± 1.2 s
VF Incidence(%) (in vivo anesthetized rat [4]; THP 3.5x10^-5 g/kg i.v.): 13% and 14* %
VT Duration (in vivo anesthetized rat [4]; THP 3.5x10^-5 g/kg i.v.): 7.6 ± 3.2 s
VT Incidence(%) (in vivo anesthetized rat [4]; THP 3.5x10^-5 g/kg i.v.): 71%
Mortality (%) (in vivo anesthetized rat [4]; THP 3.5x10^-6 g/kg i.v.): 0%
VF Duration (in vivo anesthetized rat [4]; THP 3.5x10^-6 g/kg i.v.): 9.2 ± 8.3 s
VF Incidence(%) (in vivo anesthetized rat [4]; THP 3.5x10^-6 g/kg i.v.): 29%
VT Duration (in vivo anesthetized rat [4]; THP 3.5x10^-6 g/kg i.v.): 14.6 ± 9.1 s
VT Incidence(%) (in vivo anesthetized rat [4]; THP 3.5x10^-6 g/kg i.v.): 57%
Mortality (%) (in vivo anesthetized rat [4]; THP 3.5x10^-7 g/kg i.v.): 43%
VF Duration (in vivo anesthetized rat [4]; THP 3.5x10^-7 g/kg i.v.): 75.5 ± 15.6 s
VF Incidence(%) (in vivo anesthetized rat [4]; THP 3.5x10^-7 g/kg i.v.): 86%
VT Duration (in vivo anesthetized rat [4]; THP 3.5x10^-7 g/kg i.v.): 28.6 ± 10.4 s
VT Incidence(%) (in vivo anesthetized rat [4]; THP 3.5x10^-7 g/kg i.v.): 86%
diastolic blood pressure [5]: does not modify
heart rate (HR) [5]: does not modify
systolic blood pressure [5]: does not modify
inward calcium current (inward calcium current): enhance
